In PubChem BioAssay AID2060486 (Molecular Pharmacology Branch, DTP, NCI, 2025):

Test system: IGROV1 complex spheroids (HUVEC, MSC), viability % test/control
Experiment: Anticancer human tumor IGROV1 cell line growth inhibition [GQUAD];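 note: spheroids exposed to compounds for 7 days before readout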
Settings: for IC50: curve of first compound; for viability, T/C: stronger effect = lower value
Source text: DNA G-quadruplex Stabilizer Agents in Combinations in Complex Spheroids
A high-throughput screen of multi-cell type tumor spheroids was designed to identify active combinations of DNA G-quadruplex stabilizer agents and targeted small molecules. Complex spheroids include a stromal component modeled by human endothelial cells (HUVEC) and fibroblasts modeled by human mesenchymal stem cells (MSCs). The concentration ranges selected for each drug and investigational agent were based upon clinically achievable concentrations if the clinical Cmax of the agent was known.
Compounds. The drugs and investigational agents: pidnarulex (CX-5461; NSC782164), APTO-253 (NSC789042), BRACO-19 (NSC847499), peposertib (NSC802822), ceralasertib (NSC780249), elimusertib (NSC800525), camonsertib (NSC841442), AZD-1390 (NSC803789), olaparib (NSC753686), talazoparib (NSC767125), ART-558 (NSC835418), sotorasib (NSC818433), MRTX-1133 (NSC836407), SN-38 (NSC673596), topotecan (NSC609699), etoposide (NSC141540), doxorubicin (NSC123127), gemcitabine (NSC613327), 5-fluorouracil (NSC19893), paclitaxel (NSC125973), vemurafenib (NSC761431), panobinostat (NSC761190), R-306465 (JNJ-16241199; NSC773264), adavosertib (NSC754352), TP-3654 (NSC805149), carboplatin (NSC241240), KSQ-4279 (NSC840948), and staurosporine (NSC755774) were obtained from the National Cancer Institute (NCI) Developmental Therapeutics Program Chemical Repository (34). The FDA-approved anticancer drug set is available from the NCI Developmental Therapeutics Program. […] The stock solutions were prepared in dimethyl sulfoxide (DMSO, Sigma-Aldrich, St. Louis, MO, cat. D2650) at 800-fold the tested concentration and stored at -70 degrees C prior to their use. All drugs and investigational agents were tested over a range starting from a high concentration at or near the clinical Cmax and decreasing in half-log increments. If the clinical Cmax for an agent had not been determined, the highest concentration tested was 10 microM.
2.3 Cell Culture. All cells were maintained in an incubator at 37 degrees C and 5% CO2 with 95% humidity. The PDC lines were cultured according to standard operating procedures established by the NCI PDMR. All PDCs were thawed and cultured in Matrigel-coated flasks prepared with a working solution of 1X Ham's F-12 nutrient mix, without supplementation (Invitrogen, cat. 11765054), 100 U/mL penicillin-streptomycin (Invitrogen, cat. 15140122), and 2.5% Matrigel (Corning Inc., cat. 354248) for the first three passages. The 857933-349-R-J2-PDC line was cultured in 6C/Colon 1B media, which includes advanced DMEM/F-12 (Thermo Fisher Scientific, cat. 12634028), 10 mM HEPES (Thermo Fisher Scientific, cat. 15630080), 1X GlutaMAX supplement (Thermo Fisher Scientific, cat. 35050061), 0.1 mg/mL primocin (InvivoGen, cat. ant-pm-2), 10% defined fetal bovine serum, heat inactivated (HyClone Laboratories Inc., cat. SH30070.03HI), 50% L-WRN conditioned media (ATCC, cat. CRL-3276), 1.25 mM N-Acetyl-L-cysteine (Sigma-Aldrich, cat. A9165), 10 mM nicotinamide (Sigma-Aldrich, cat. N0636), 1X B-27 supplement (Thermo Fisher Scientific, cat. 17504044), 1X N-2 supplement (Thermo Fisher Scientific, cat. 17502048), 10 microM Y-27632 dihydrochloride (Tocris Bioscience, cat. 1254), and 50 ng/mL human EGF recombinant protein (Thermo Fisher Scientific, cat. PHG0311). The 485176-168-R4-J1-PDC line was cultured in Panc media, which includes all 6C/Colon 1B media components plus 100 ng/mL human FGF-10 (Thermo Fisher Scientific, cat. 100-26), 500 nM SB-431542 (Selleckchem, cat. S1067), and gastrin (Tocris, cat. 3006).
[…]

[1] = second compound 0.0316 µM, first compound 0.0316 µM
[2] = second compound 0.0316 µM, first compound 0.316 µM
[3] = second compound 0.1 µM, first compound 0.0316 µM
[4] = second compound 0.1 µM, first compound 0.316 µM
[5] = second compound 0.316 µM, first compound 0.0316 µM
[6] = second compound 0.316 µM, first compound 0.316 µM
[7] = second compound 1 µM, first compound 0.0316 µM
[8] = second compound 1 µM, first compound 0.316 µM
[9] = second compound 3.16 µM, first compound 0.0316 µM
[10] = second compound 3.16 µM, first compound 0.316 µM
[11] = second compound 10 µM, first compound 0.0316 µM
[12] = second compound 10 µM, first compound 0.316 µM

`CCCS(=O)(=O)Nc1ccc(F)c(C(=O)c2c[nH]c3ncc(-c4ccc(Cl)cc4)cc23)c1F` + Cc1cnc(CNC(=O)c2c(=O)c3ccc(N4CCCN(C)CC4)nc3n3c2sc2ccccc23)cn1 showed an IC50 (second compound 0.0316 µM) of 1470 nM, an IC50 (second compound 0.1 µM) of less than 31.6 nM and an IC50 (second compound 0.316 µM) of less than 31.6 nM. The IC50 (second compound 1 µM) was less than 31.6 nM, the IC50 (second compound 3.16 µM) was less than 31.6 nM and the IC50 (second compound 10 µM) was less than 31.6 nM. It also gave a viability, T/C [1] of 77.1%, a viability, T/C (second compound 0.0316 µM, first compound 0.1 µM) of 71.3% and a viability, T/C [2] of 50.1%. For the same compound, the viability, T/C (second compound 0.0316 µM, first compound 1 µM) was 52.3%, the viability, T/C (second compound 0.0316 µM, first compound 3.16 µM) was 51.9% and the viability, T/C (second compound 0.0316 µM, first compound 10 µM) was 14.2%. The viability, T/C [3] was 44.5%, the viability, T/C (second compound 0.1 µM, first compound 0.1 µM) was 42.7% and the viability, T/C [4] was 41.1%. It also gave a viability, T/C (second compound 0.1 µM, first compound 1 µM) of 31.6%, a viability, T/C (second compound 0.1 µM, first compound 3.16 µM) of 37.9% and a viability, T/C (second compound 0.1 µM, first compound 10 µM) of 9.64%. For the same compound, the viability, T/C [5] was 21%, the viability, T/C (second compound 0.316 µM, first compound 0.1 µM) was 33.1% and the viability, T/C [6] was 25.4%. The viability, T/C (second compound 0.316 µM, first compound 1 µM) was 24.6%, the viability, T/C (second compound 0.316 µM, first compound 3.16 µM) was 14.4% and the viability, T/C (second compound 0.316 µM, first compound 10 µM) was 7.38%. It also gave a viability, T/C [7] of 15.1%, a viability, T/C (second compound 1 µM, first compound 0.1 µM) of 17.2% and a viability, T/C [8] of 11.9%. It also gave a viability, T/C (second compound 1 µM, first compound 1 µM) of 15.9%, a viability, T/C (second compound 1 µM, first compound 3.16 µM) of 14.6% and a viability, T/C (second compound 1 µM, first compound 10 µM) of 5.36%. The viability, T/C [9] was 9.19%, the viability, T/C (second compound 3.16 µM, first compound 0.1 µM) was 7.43% and the viability, T/C [10] was 10.5%. For the same compound, the viability, T/C (second compound 3.16 µM, first compound 1 µM) was 10.6%, the viability, T/C (second compound 3.16 µM, first compound 3.16 µM) was 9.32% and the viability, T/C (second compound 3.16 µM, first compound 10 µM) was 4.31%. It also gave a viability, T/C [11] of 10.1%, a viability, T/C (second compound 10 µM, first compound 0.1 µM) of 9.63% and a viability, T/C [12] of 8.82%. The viability, T/C (second compound 10 µM, first compound 1 µM) was 8.04%, the viability, T/C (second compound 10 µM, first compound 3.16 µM) was 6.37% and the viability, T/C (second compound 10 µM, first compound 10 µM) was 5.19%.

With `Cn1ncnc1[C@H]1c2n[nH]c(=O)c3cc(F)cc(c23)N[C@@H]1c1ccc(F)cc1` + Cc1cnc(CNC(=O)c2c(=O)c3ccc(N4CCCN(C)CC4)nc3n3c2sc2ccccc23)cn1 the IC50 (second compound 0.0316 µM) was 21.9 nM, the IC50 (second compound 0.1 µM) was less than 0.999 nM and the IC50 (second compound 0.316 µM) was less than 0.999 nM. For the same compound, the IC50 (second compound 1 µM) was less than 0.999 nM, the IC50 (second compound 3.16 µM) was less than 0.999 nM and the IC50 (second compound 10 µM) was less than 0.999 nM. The viability, T/C (second compound 0.0316 µM, first compound 0.000999 µM) was 73.9%, the viability, T/C (second compound 0.0316 µM, first compound 0.00316 µM) was 67.1% and the viability, T/C (second compound 0.0316 µM, first compound 0.00999 µM) was 60%. For the same compound, the viability, T/C [1] was 41%, the viability, T/C (second compound 0.0316 µM, first compound 0.0999 µM) was 38.5% and the viability, T/C [2] was 19.3%. For the same compound, the viability, T/C (second compound 0.1 µM, first compound 0.000999 µM) was 44.2%, the viability, T/C (second compound 0.1 µM, first compound 0.00316 µM) was 34.8% and the viability, T/C (second compound 0.1 µM, first compound 0.00999 µM) was 30.9%. The viability, T/C [3] was 21.6%, the viability, T/C (second compound 0.1 µM, first compound 0.0999 µM) was 21.6% and the viability, T/C [4] was 19%. It also gave a viability, T/C (second compound 0.316 µM, first compound 0.000999 µM) of 29.5%, a viability, T/C (second compound 0.316 µM, first compound 0.00316 µM) of 18.9% and a viability, T/C (second compound 0.316 µM, first compound 0.00999 µM) of 20.2%. The viability, T/C [5] was 16.8%, the viability, T/C (second compound 0.316 µM, first compound 0.0999 µM) was 16.5% and the viability, T/C [6] was 12.4%. It also gave a viability, T/C (second compound 1 µM, first compound 0.000999 µM) of 17.3%, a viability, T/C (second compound 1 µM, first compound 0.00316 µM) of 11% and a viability, T/C (second compound 1 µM, first compound 0.00999 µM) of 14.8%. For the same compound, the viability, T/C [7] was 14%, the viability, T/C (second compound 1 µM, first compound 0.0999 µM) was 12.7% and the viability, T/C [8] was 12.1%. The viability, T/C (second compound 3.16 µM, first compound 0.000999 µM) was 11.3%, the viability, T/C (second compound 3.16 µM, first compound 0.00316 µM) was 8.42% and the viability, T/C (second compound 3.16 µM, first compound 0.00999 µM) was 10.4%. The viability, T/C [9] was 13.2%, the viability, T/C (second compound 3.16 µM, first compound 0.0999 µM) was 9.17% and the viability, T/C [10] was 7.53%. It also gave a viability, T/C (second compound 10 µM, first compound 0.000999 µM) of 8.16%, a viability, T/C (second compound 10 µM, first compound 0.00316 µM) of 10% and a viability, T/C (second compound 10 µM, first compound 0.00999 µM) of 10.5%. For the same compound, the viability, T/C [11] was 9.96%, the viability, T/C (second compound 10 µM, first compound 0.0999 µM) was 10.5% and the viability, T/C [12] was 8.19%.
